In patent publication US4822778A, “Membrane stabilizing phenoxy-piperidine compounds and pharmaceutical compositions employing such compounds” (Aberg; Gunnar, priority 1988, dated 1989):

What was measured:
[1] = Convulsive and lethal doses in rats, intravenous infusion; assay type: in vivo; details: rat, in vivo, iv; male rats, i.v. at 1.0 mg/kg/min; read-out: Convulsive dose
Procedure: (§1) Convulsive doses and lethal doses after intravenous administration for selected compounds of the invention and for Bupivacaine are shown in Table 3 below.
(§2) Convulsive and lethal doses of selected compounds
(§3) administered intravenously at 1.0 mg/kg/min to rats (male;

rats = experiment: as above; assay type: in vivo; details: male rats, i.v. at 1.0 mg/kg/min
Procedure: as §1, §2, §3

in vivo = details: mouse, sc
rabbit cornea = experiment: Topical anesthetic effects, corneal test in rabbits in vivo; details: 0.25 ml
Procedure: C. Topical anesthetic effects. Corneal tests were carried out in rabbits in vivo according to Henn.

sciatic nerve = experiment: Nerve blocking effects in rats in vivo; details: 0.25 ml of 0.5% by weight solution
Procedure: B. Nerve blocking effects. The tests were carried out in vivo in rats after injection of 0.25 ml of the test solutions close to the sciatic nerve.

guinea pigs = experiment: Infiltration anesthetic effects, intracutaneous injection in guinea pigs; assay type: in vivo; details: 0.2 ml of 0.5% by weight solution
Procedure: 1. […] A. Infiltration anesthetic effects: The effects of the new compounds were tested according to Aberg & […], Acta Anaesth.

ventricular arrhythmias = experiment: Antiarrhythmic effects, ouabain-induced ventricular arrhythmias in anesthetized dogs; assay type: in vivo; details: i.v.
Procedure: 2. Antiarrhythmic effects.
Ventricular arrhythmias were induced in anesthetized dogs by intravenous injection of ouabain: initially 40 μg/kg bodyweight and thereafter 20 μg/kg bodyweight every 20 minutes until the ventricular arrhythmia was regarded as manifest. Lidocaine was also tested by the same procedure. The new compounds were compared with lidocaine, a known antiarrhythmic compound.

lingomandibular reflex = experiment: Interneuronblocking effects, lingomandibular reflex in anesthetized cats; assay type: in vivo, cats (female; 2.5-3.5 kg)
Procedure: 3. Interneuronblocking effects.
Tests were carried out in anesthetized cats (female; 2.5-3.5 kg bodyweight). The effects of the compounds were studied on the lingomandibular reflex, which was provoked by means of electrical stimulation of the tongue. The mandibular reflux was registered from a transducer connected to the mandible. Phenyramidole was tested by the same procedure. As evident from the results shown in Table 8, the compound according to Example 2 of the invention is 10 times as potent as phenyramidole.

cynomolgus monkeys = experiment: Spinal anesthetic effects in monkeys, intrathecal injection; assay type: in vivo; details: intrathecal 1.0 ml
Procedure: D. Spinal Anesthetic Effects.
Spinal anesthetsias were performed on cynomolgus monkeys that had been sedated with ketamine (6 mg/kg; i.m.). 1.0 ml of the test solutions were injected intrathecally and the durations were tested every ten (10) minutes with forceps. The duration of motoric blockade was calculated as the time until the hind leg paralysis ceased.

Row | Structure (SMILES) | TD50 [1] | Lethal dose (rats) | LD50 (in vivo) | Topical anesthetic effect, Duration (rabbit cornea; concentration 1.0%) | Topical anesthetic effect, Onset frequency (rabbit cornea; concentration 1.0%) | Nerve blocking effect, Motoric blockade (sciatic nerve) | Nerve blocking effect, Sensoric blockade (sciatic nerve) | Infiltration anesthesia duration (guinea pigs) | Duration of regularization (ventricular arrhythmias; 1 mg/kg) | further results
1 | CCCCN1CCCCC1C(=O)Nc1c(C)cccc1C (centres unmarked) [Bupivacaine, reference compound] | 9 mg/kg | 13 mg/kg | 50 mg/kg | – | – | – | – | – | – | –
2 | Cc1cccc(C)c1OCC1CCCCN1 (centres unmarked) [Example 1, 2-[(2,6-xyloxy)methyl]piperidine] | 22 mg/kg | 50 mg/kg | 110 mg/kg | 24 ± 4 min | 9/10 | 75 min | 90 min | 40 min | 5 min | Duration of regularization (ventricular arrhythmias; 2 mg/kg): 10 min
3 | Cc1cccc(C)c1OCC1CCCCN1C.Cl (centres unmarked) [Example 2, N-methyl-2-[(2,6-xyloxy)methyl]-piperidine hydrochloride] | 10 mg/kg | 33 mg/kg | 260 mg/kg | 14 ± 4 min | 7/10 | 110 min | 135 min | 120 min | 2 min | inhibition at 0.25 mg/kg (lingomandibular reflex; Felis catus, iv, 0.25 mg/kg bodyweight, read-out: Maximal inhibition): 30%; inhibition at 0.5 mg/kg (lingomandibular reflex; Felis catus, iv, 0.50 mg/kg bodyweight, read-out: Maximal inhibition): 80%; inhibition at 1 mg/kg (lingomandibular reflex; Felis catus, iv, 1.00 mg/kg bodyweight, read-out: Maximal inhibition): 100%; Duration of inhibition (lingomandibular reflex; i.v., 0.25 mg/kg bodyweight): 10 min; Duration of inhibition (lingomandibular reflex; i.v., 0.50 mg/kg bodyweight): 20 min; Duration of inhibition (lingomandibular reflex; i.v., 1.00 mg/kg bodyweight): 45 min; Potency relative to phenyramidole (lingomandibular reflex; i.v., compared with phenyramidole): 10 times; Duration of regularization (ventricular arrhythmias; 2 mg/kg): 4 min
4 | CC1CCCC(C)C1OCC1CCCCN1 (centres unmarked) [Example 3, 2-[(2,6-dimethylcyclohexyloxy)methyl]piperidine] | – | – | 180 mg/kg | – | – | 0 min | 0 min | 35 min | – | –
5 | CC1CCCC(C)C1OCC1CCCCN1C (centres unmarked) [Example 4] | – | – | 350 mg/kg | – | – | 65 min | 80 min | 60 min | – | –
6 | CCN1CCCCC1COc1c(C)cccc1C (centres unmarked) [Example 5, N-ethyl-2-[(2,6-xyloxy)-methyl]piperidine] | 15 mg/kg | 41 mg/kg | 200 mg/kg | 18 ± 3 min | 9/10 | 90 min | 115 min | 70 min | 3 min | Duration, Anal Blockade (cynomolgus monkeys; 3.0% by wt.): 258 min; Duration, Digital Blockade (cynomolgus monkeys; 3.0% by wt.): 163 min; Duration, Motor Blockade (cynomolgus monkeys; 3.0% by wt.): 178 min
7 | CCCN1CCCCC1COc1c(C)cccc1C (centres unmarked) [Example 6, N-(n-propyl)-2-[(2,6-xyloxy)methyl]piperidine] | 11 mg/kg | 20 mg/kg | 200 mg/kg | 24 ± 2 min | 9/9 | 145 min | 155 min | 175 min | 4 min | Duration, Anal Blockade (cynomolgus monkeys; 3.0% by wt.): > 291 min; Duration, Digital Blockade (cynomolgus monkeys; 3.0% by wt.): 222 min; Duration, Motor Blockade (cynomolgus monkeys; 3.0% by wt.): > 198 min
8 | CCCCN1CCCCC1COc1c(C)cccc1C (centres unmarked) [Example 7, N-(n-butyl)-2-[(2,6-xyloxy)methyl]piperidine] | 16 mg/kg | 24 mg/kg | 225 mg/kg | 27 ± 4 min | 10/10 | 140 min | 160 min | 165 min | 4 min | –
9 | Cc1ccc(OCC2CCCCN2C)c(C)c1 (centres unmarked) [Example 8] | – | – | 400 mg/kg | – | – | 55 min | 75 min | 35 min | – | –
10 | Cc1ccc(C)c(OCC2CCCCN2C)c1 (centres unmarked) [Example 9] | – | – | 400 mg/kg | – | – | 75 min | 95 min | 25 min | – | –
11 | CN1CCCCC1COc1ccccc1 (centres unmarked) [Example 10] | – | – | 150 mg/kg | – | – | 25 min | 40 min | 35 min | – | –
12 | Cc1ccccc1OCC1CCCCN1C (centres unmarked) [Example 11] | – | – | 300 mg/kg | – | – | 60 min | 85 min | 55 min | – | –
13 | Cc1cccc(C)c1OCC1CCCCN1CCO (centres unmarked) [Example 12] | – | – | 220 mg/kg | – | – | 95 min | 95 min | 40 min | – | –
14 | CCN(CC)CC(=O)Nc1c(C)cccc1C [Lidocaine, reference compound] | – | – | – | – | – | 40 min | 35 min | 25 min | 2 min | Topical anesthetic effect, Duration (rabbit cornea; concentration 4.0%): 23 ± 3 min; Topical anesthetic effect, Onset frequency (rabbit cornea; concentration 4.0%): 10/10; Duration, Anal Blockade (cynomolgus monkeys; 5.0% by wt.): 150 min; Duration, Digital Blockade (cynomolgus monkeys; 5.0% by wt.): 88 min; Duration, Motor Blockade (cynomolgus monkeys; 5.0% by wt.): 73 min; Duration of regularization (ventricular arrhythmias; 2 mg/kg): 4 min
15 | OC(CNc1ccccn1)c1ccccc1 (centres unmarked) [Phenyramidole, reference compound] | – | – | – | – | – | – | – | – | – | inhibition at 2.5 mg/kg (lingomandibular reflex; Felis catus, iv, 2.5 mg/kg bodyweight, read-out: Maximal inhibition): 40%; inhibition at 5 mg/kg (lingomandibular reflex; Felis catus, iv, 5.0 mg/kg bodyweight, read-out: Maximal inhibition): 80%; inhibition at 10 mg/kg (lingomandibular reflex; Felis catus, iv, 10.0 mg/kg bodyweight, read-out: Maximal inhibition): 100%; Duration of inhibition (lingomandibular reflex; i.v., 2.5 mg/kg bodyweight): 5 min; Duration of inhibition (lingomandibular reflex; i.v., 5.0 mg/kg bodyweight): 20 min; Duration of inhibition (lingomandibular reflex; i.v., 10.0 mg/kg bodyweight): 60 min
